Data reported in patent US20250361241A1, “HPK1 INHIBITOR AND MEDICAL USE THEREOF” (Betta Pharmaceuticals Co., Ltd., priority 2022, published 2025).
“And” between values parts separate entries of the source, which are not always exact repeats. Equal values may be shown once.

Tests used:
GLK = GLK (Homo sapiens (Human), UniProt Q8IVH8); assay: GLK kinase assay (1 mM ATP system), ADP-Glo; assay type: biochemical
Description: Solution […] The test compound was serially diluted using DMSO to 200 times the detection concentration. […] Centrifuge at 1000×g for 30 seconds and incubate at 25° C. for 15 minutes. • (5) Add ATP and substrate: Add 2 μL of 2×ATP-MBP solution to the 384-well plate and centrifuge at 1000×g for 30 seconds. Seal the plate with a sealing film and incubate at 25° C. for 60 minutes. • (6) Add ADP-Glo reagent: Add 4 μL ADP-Glo reagent (Promega, V9103) to the 384-well plate, centrifuge at 1000×g for 30 seconds, and incubate at 25° C. for 60 minutes. • (7) Detection of luminescent signal: Add 8 μL of luminescent detection reagent (Promega, V9103) to a 384-well plate, centrifuge at 1000×g for 30 seconds, and incubate at 25° C. for 60 minutes. The chemiluminescent signal was read using a BMG microplate reader. • (8) Calculation of percentage inhibition rate: […] See Table 2 for the GLK kinase IC50 data of the example compounds on […].

HPK1 = HPK1 (Homo sapiens (Human), UniProt Q92918); assay: HPK1 enzyme activity detection (1 mM ATP system), ADP-Glo with MBP substrate, Pharmacological Experiment 2; assay type: biochemical
Chain of HPK1 (Q92918 whole entry, species assumed): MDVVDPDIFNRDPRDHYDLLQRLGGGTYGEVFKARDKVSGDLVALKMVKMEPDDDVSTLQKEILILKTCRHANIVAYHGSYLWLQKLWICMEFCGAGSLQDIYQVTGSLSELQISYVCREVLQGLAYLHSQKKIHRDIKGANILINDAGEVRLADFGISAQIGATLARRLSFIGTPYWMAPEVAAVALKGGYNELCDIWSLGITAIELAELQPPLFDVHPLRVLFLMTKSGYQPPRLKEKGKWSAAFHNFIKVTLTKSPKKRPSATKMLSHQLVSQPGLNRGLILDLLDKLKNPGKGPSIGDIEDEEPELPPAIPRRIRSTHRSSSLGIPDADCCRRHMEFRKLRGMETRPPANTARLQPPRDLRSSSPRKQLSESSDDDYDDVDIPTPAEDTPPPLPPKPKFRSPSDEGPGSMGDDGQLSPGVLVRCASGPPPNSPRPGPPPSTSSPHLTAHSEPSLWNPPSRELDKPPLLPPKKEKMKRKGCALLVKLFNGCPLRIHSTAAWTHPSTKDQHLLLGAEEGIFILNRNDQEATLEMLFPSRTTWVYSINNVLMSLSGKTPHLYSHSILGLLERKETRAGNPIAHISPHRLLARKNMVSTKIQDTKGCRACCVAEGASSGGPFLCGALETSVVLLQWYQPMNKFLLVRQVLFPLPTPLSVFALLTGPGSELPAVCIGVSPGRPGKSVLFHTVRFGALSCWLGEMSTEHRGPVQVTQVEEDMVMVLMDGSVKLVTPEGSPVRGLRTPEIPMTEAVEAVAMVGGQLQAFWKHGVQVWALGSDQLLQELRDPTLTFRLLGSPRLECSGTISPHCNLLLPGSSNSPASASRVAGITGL
Description: Pharmacological Experiment 2: […] The test compound was serially diluted using DMSO to 200 times the detection concentration. […] Centrifuge at 1000×g for 30 seconds and incubate at 25° C. for 15 minutes. • (5) Adding ATP and substrate: Add 2 μL of 2×ATP-MBP solution to the 384-well plate and centrifuge at 1000×g for 30 seconds. Seal the plate with a sealing film and incubate at 25° C. for 60 minutes. • (6) Add ADP-Glo reagent: Add 4 μL ADP-Glo reagent (Promega, V9103) to the 384-well plate, centrifuge at 1000×g for 30 seconds, and incubate at 25° C. for 60 minutes. • (7) Detection of luminescent signal; Add 8 μL of luminescent detection reagent (Promega, V9103) to a 384-well plate, centrifuge at 1000×g for 30 seconds, and incubate at 25° C. for 60 minutes. The chemiluminescent signal was read using a BMG instrument. • (8) Calculation of percentage inhibition rate: […] See Table 2 for the enzymatic IC 50 data of the example compounds on HPK1.

Chain of GLK (Q8IVH8 whole entry, species assumed): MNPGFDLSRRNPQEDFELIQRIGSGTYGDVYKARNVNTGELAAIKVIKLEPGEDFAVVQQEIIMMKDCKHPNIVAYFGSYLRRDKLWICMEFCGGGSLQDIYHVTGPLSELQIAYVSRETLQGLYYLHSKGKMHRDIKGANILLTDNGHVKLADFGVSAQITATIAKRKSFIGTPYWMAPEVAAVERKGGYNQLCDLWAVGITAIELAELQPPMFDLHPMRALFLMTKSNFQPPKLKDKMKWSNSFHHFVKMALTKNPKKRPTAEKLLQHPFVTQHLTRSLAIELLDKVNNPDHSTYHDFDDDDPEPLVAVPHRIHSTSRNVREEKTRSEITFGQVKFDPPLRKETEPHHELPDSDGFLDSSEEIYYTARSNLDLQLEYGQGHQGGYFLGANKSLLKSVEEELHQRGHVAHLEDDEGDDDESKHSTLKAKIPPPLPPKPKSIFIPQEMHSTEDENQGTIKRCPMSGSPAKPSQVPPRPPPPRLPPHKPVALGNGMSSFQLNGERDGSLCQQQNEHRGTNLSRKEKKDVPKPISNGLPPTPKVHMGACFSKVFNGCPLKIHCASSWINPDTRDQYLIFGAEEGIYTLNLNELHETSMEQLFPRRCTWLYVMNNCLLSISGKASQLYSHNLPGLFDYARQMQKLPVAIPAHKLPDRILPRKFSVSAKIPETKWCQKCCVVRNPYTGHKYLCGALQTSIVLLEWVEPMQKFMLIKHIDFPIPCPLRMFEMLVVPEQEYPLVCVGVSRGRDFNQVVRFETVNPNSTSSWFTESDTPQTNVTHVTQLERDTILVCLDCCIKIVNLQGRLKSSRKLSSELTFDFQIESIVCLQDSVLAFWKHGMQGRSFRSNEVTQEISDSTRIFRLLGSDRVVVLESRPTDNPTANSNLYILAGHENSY

Structure (SMILES) | IC50 (GLK) | IC50 (HPK1)
CN(C)C1CC2(CCOCC2)c2ccc(Nc3ccc(-c4cnn5cccnc45)c4c3C(=O)NC4)nc21 (centres unmarked) [Compound 38] | 232 nM | 2.92 nM
O=C1NCc2c(-c3cnc4cc(F)ccn34)ccc(Nc3ccc4c(n3)C(N3CCC3)CC43CCOCC3)c21 (centres unmarked) [Compound 39, 7-(7-(AZETIDIN-1-YL)-2′,3′,5′,6,6′,7-HEXAHYDROSPIRO[B]PYRIDINE-5,4′-PYRAN]-2-YL)AMINO)-4-(7-FLUOROIMIDAZO[1,2-A]PYRIDIN-3-YL)ISOINDOL-1-ONE] | 88.2 nM | 3.7 nM and 2.78 nM
CN(C)C1CC2(CCOCC2)c2ccc(Nc3ccc(-c4cnc5cc(CO)ccn45)c4c3C(=O)NC4)nc21 (centres unmarked) [Compound 41, 7-((7-(DIMETHYLAMINO)-2′,3′,5′,6,6′,7-HEXAHYDROSPIRO[B]PYRIDIN-5,4′-PYRAN]-2-YL)AMINO)-4-(7-(HYDROXYMETHYL)IMIDAZO[1,2-A]PYRIDIN-3-YL)ISOINDOL-1-ONE] | 70.7 nM | 3.76 nM
CN(C)C1CC2(CCOCC2)c2ccc(Nc3ccc(-c4cnc5cc(Cl)ccn45)c4c3C(=O)NC4)nc21 (centres unmarked) [Compound 42] | 119 nM | 4.62 nM
CN(C)C1CC2(CCOCC2)c2ccc(Nc3ccc(-c4cnc5c(F)c(F)ccn45)c4c3C(=O)NC4)nc21 (centres unmarked) [Compound 43, 4-(7,8-DIFLUOROIMIDAZO[1,2-A]PYRIDIN-3-YL)-7-((7-(DIMETHYLAMINO)-2′,3′,5′,6,6′,7-HEXAHYDROSPIRO [B]PYRIDIN-5,4′-PYRAN]-2-YL)AMINO)ISOINDOL-1-ONE] | 657 nM | 4.22 nM
CN(C)C1CC2(CCOCC2)c2ccc(Nc3ccc(-c4cnc5ncccn45)c4c3C(=O)NC4)nc21 (centres unmarked) [Compound 44] | 378 nM | 3.05 nM
CN(C)C1CC2(CCOCC2)c2ccc(Nc3ccc(-c4cnc5cc(F)c(Cl)cn45)c4c3C(=O)NC4)nc21 (centres unmarked) [Compound 46, 4-(6-CHLORO-7-FLUOROIMIDAZO[1,2-A]PYRIDIN-3-YL)-7-((7-(DIMETHYLAMINO)-2′,3′,5′,6,6′,7-HEXAHYDRO SPIRO[B]PYRIDIN-5,4′-PYRAN]-2-YL)AMINO)ISOINDOLIN-1-ONE] | 971 nM | 11.8 nM
Cc1cc(Nc2ccc(-c3cnc4ccccn34)c3c2C(=O)NC3)nc2c1C1(CCOCC1)C[C@H]2N(C)C [Compound 47] | 30.3 nM | 1.51 nM
Cc1cc(Nc2ccc(-c3cnn4ccccc34)c3c2C(=O)NC3)nc2c1C1(CCOCC1)C[C@H]2N(C)C [Compound 48] | 8.81 nM | 2.06 nM
CN(C)Cc1nc(Nc2ccc(-c3cnc4cc(F)ccn34)c3c2C(=O)NC3)cc2c1C1(CCOCC1)NC2 [Compound 55] | 2150 nM | 7.56 nM
O=C1NCc2c(-c3cnc4cc(F)ccn34)ccc(Nc3ccc4c(n3)C(N3CCOCC3)CC43CCOCC3)c21 (centres unmarked) [Compound 59, 4-(7-FLUOROIMIDAZO[1,2-A]PYRIDIN-3-YL)-7-(7-MORPHOLIN-2′,3′,5′,6,6′,7-HEXAHYDROSPIRO[B]PYRIDIN-5,4′-PYRAN]-2-YL)AMINO)ISOINDOL-1-ONE] | > 30000 nM | 6.09 nM
CNC1CC2(CCOCC2)c2ccc(Nc3ccc(-c4cnc5cc(F)ccn45)c4c3C(=O)NC4)nc21 (centres unmarked) [Compound 60, 4-(7-FLUOROIMIDAZO[1,2-A]PYRIDIN-3-YL)-7-((7-(METHYLAMINO)-2′,3′,5′,6,6′,7-HEXAHYDROSPIRO[B]PYRIDIN-5,4′-PYRAN]-2-YL)AMINO)ISOINDOL-1-ONE] | 123 nM | 2.14 nM
CN(C1CC1)C1CC2(CCOCC2)c2ccc(Nc3ccc(-c4cnc5cc(F)ccn45)c4c3C(=O)NC4)nc21 (centres unmarked) [Compound 61, 7-((7-(CYCLOPROPYL(METHYL)AMINO)-2′,3′,5′,6,6′,7-HEXAHYDROSPIRO[CYCLOPENTYL[B]PYRIDINE-5,4′-PYRAN]-2-YL)AMINO)-4-(7-FLUOROIMIDAZOLE[1,2-A]PYRIDIN-3-YL)ISOINDOL-1-ONE] | > 30000 nM | 7.7 nM
O=C1NCc2c(-c3cnc4cc(F)ccn34)ccc(Nc3ccc4c(n3)C(N3CC(F)C3)CC43CCOCC3)c21 (centres unmarked) [Compound 67, 7-(7-(3-FLUOROAZETIDINE-1-YL)-2′,3′,5′,6,6′,7-HEXAHYDROSPIRO[B]PYRIDINE-5,4′-PYRAN]-2-YL)AMINO)-4-(7-FLUOROIMIDAZO[1,2-A]PYRIDIN-3-YL)ISOINDOLIN-1-ONE] | 136 nM | 2.49 nM
COC1(C)CN(C2CC3(CCOCC3)c3ccc(Nc4ccc(-c5cnc6cc(F)ccn56)c5c4C(=O)NC5)nc32)C1 (centres unmarked) [Compound 70] | 188 nM | 2.99 nM
CO[C@@H]1CCN(C2CC3(CCOCC3)c3ccc(Nc4ccc(-c5cnc6cc(F)ccn56)c5c4C(=O)NC5)nc32)C1 (some centres unmarked) [Compound 73] | 206 nM | 3.48 nM
N#Cc1ccn2c(-c3ccc(Nc4ccc5c(n4)CCCC54CCOCC4)c4c3CNC4=O)cnc2c1 [Compound 146, 3-(7-((2,3,5,6,7′,8′-HEXAHYDRO-6′-H-SPIRO[PYRAN-4,5′-[1,7]NAPHTHYRIDINE]-2′-YL)AMINO)-1-OXOISOINDOL-4-YL)IMIDAZO[1,2-A]PYRIDINE-7-CARBONITRILE] | 1230 nM | 4.33 nM

Now from value to compound:

IC50 (GLK) | IC50 (HPK1) | Structure (SMILES)
299 nM | 3.02 nM | O=C1NCc2c(-c3cnc4cc(F)ccn34)ccc(Nc3ccc4c(n3)C(N3CC[C@H](F)C3)CC43CCOCC3)c21 (some centres unmarked) [Compound 74]
286 nM | 3.55 nM | CO[C@H]1CCN(C2CC3(CCOCC3)c3ccc(Nc4ccc(-c5cnc6cc(F)ccn56)c5c4C(=O)NC5)nc32)C1 (some centres unmarked) [Compound 76]
831 nM | 5.19 nM | CC(C)N(C)C1CC2(CCOCC2)c2ccc(Nc3ccc(-c4cnc5cc(F)ccn45)c4c3C(=O)NC4)nc21 (centres unmarked) [Compound 85, 4-(7-FLUOROIMIDAZO[1,2-A]PYRIDIN-3-YL)-7-((7-(ISOPROPYL(METHYL)AMINO)-2′,3′,5′,6,6′,7-HEXAHYDRO SPIRO[CYCLOPENTYL[B]PYRIDIN-5,4′-PYRAN]-2-YL)AMINO)ISOINDOL-1-ONE]
158 nM | 2.61 nM | CN(C)C1COC2(CCOCC2)c2ccc(Nc3ccc(-c4cnc5cc(Cl)ccn45)c4c3C(=O)NC4)nc21 (centres unmarked) [Compound 86]
208 nM | 5.29 nM | O=C1NCc2c(-c3cnc4cc(F)ccn34)ccc(Nc3ccc4c(n3)C(N3CC5(COC5)C3)CC43CCOCC3)c21 (centres unmarked) [Compound 88]
598 nM | 5.58 nM | O=C1NCc2c(-c3cnc4cc(F)ccn34)ccc(Nc3ccc4c(n3)C(N3CCCCC3)CC43CCOCC3)c21 (centres unmarked) [Compound 90]
> 30000 nM | 86.2 nM | CN1CCN(C2CC3(CCOCC3)c3ccc(Nc4ccc(-c5cnc6cc(F)ccn56)c5c4C(=O)NC5)nc32)CC1 (centres unmarked) [Compound 91]
> 25000 nM | 27 nM | CN(C1CCOCC1)C1CC2(CCOCC2)c2ccc(Nc3ccc(-c4cnc5cc(F)ccn45)c4c3C(=O)NC4)nc21 (centres unmarked) [Compound 93]
4530 nM | 9.27 nM | COC1(C)CCN(C2CC3(CCOCC3)c3ccc(Nc4ccc(-c5cnc6cc(F)ccn56)c5c4C(=O)NC5)nc32)CC1 (centres unmarked) [Compound 94]
> 30000 nM | 12.4 nM | O=C1NCc2c(-c3cnc4cc(F)ccn34)ccc(Nc3ccc4c(n3)C(N3CCC(F)(F)CC3)CC43CCOCC3)c21 (centres unmarked) [Compound 98]
858 nM | 5.22 nM | CC(C)(C)NC1CC2(CCOCC2)c2ccc(Nc3ccc(-c4cnc5cc(F)ccn45)c4c3C(=O)NC4)nc21 (centres unmarked) [Compound 101]
> 30000 nM | 7.42 nM | CC(C)NC1CC2(CCOCC2)c2ccc(Nc3ccc(-c4cnc5cc(F)ccn45)c4c3C(=O)NC4)nc21 (centres unmarked) [Compound 102]
697 nM | 3.46 nM | COCCNC1CC2(CCOCC2)c2ccc(Nc3ccc(-c4cnc5cc(F)ccn45)c4c3C(=O)NC4)nc21 (centres unmarked) [Compound 106]
791 nM | 5.97 nM | O=C1NCc2c(-c3cnc4cc(F)ccn34)ccc(Nc3ccc4c(n3)C(NC3CCCC3)CC43CCOCC3)c21 (centres unmarked) [Compound 109]
317 nM | 2.67 nM | O=C1NCc2c(-c3cnc4cc(F)ccn34)ccc(Nc3ccc4c(n3)C(N3C[C@H]5C[C@@H]3CO5)CC43CCOCC3)c21 (some centres unmarked) [Compound 110]
562 nM | 5.04 nM | O=C1NCc2c(-c3cnc4cc(F)ccn34)ccc(Nc3ccc4c(n3)C(NCC3CC3)CC43CCOCC3)c21 (centres unmarked) [Compound 117]
> 3000 nM | 29.8 nM | CC(C)N1Cc2nc(Nc3ccc(-c4cnc5cc(F)ccn45)c4c3C(=O)NC4)ccc2C2(CCOCC2)C1 [Compound 119]
> 3000 nM | 11 nM | O=C1NCc2c(-c3cnc4cc(F)ccn34)ccc(Nc3ccc4c(n3)CN(CC3CC3)CC43CCOCC3)c21 [Compound 120]
2760 nM | 8.47 nM | CCN1Cc2nc(Nc3ccc(-c4cnc5cc(F)ccn45)c4c3C(=O)NC4)ccc2C2(CCOCC2)C1 [Compound 124]
> 3000 nM | 7.42 nM | O=C1NCc2c(-c3cnc4cc(F)ccn34)ccc(Nc3ccc4c(n3)C(N3CCC(F)CC3)CC43CCOCC3)c21 (centres unmarked) [Compound 144]
